Laboratory results from patent US20060069132A1, “Azolecarboxamide herbicides” (priority 2004, published 2006).

Key:
Experiment in all cases: Test C pre-/postemergence herbicide test
[1] = system: velvetleaf; format: in vivo, Abutilon theophrasti; conditions: for Plant response rating, Velvetleaf: visual, 12 to 14 days
In short: (§1)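 Pre- and postemergence application, solvent/surfactant formulation; post at 1- to 4-leaf stage (2–18 cm). Greenhouse 12–14 d. Visual rating vs controls, 0 = no effect, 100 = complete control.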

[2] = system: large crabgrass; format: in vivo, Digitaria sanguinalis; conditions: for Plant response rating, Crabgrass, Large: visual, 12 to 14 days
In short: as §1

[3] = system: eastern black nightshade; format: in vivo, Solanum ptycanthum; conditions: for Plant response rating, Nightshade: visual, 12 to 14 days
Source text: Seeds of plant species selected from bermudagrass (Cynodon dactylon (L.) Pers.), Surinam grass (Urochloa decumbens (Staph) R. D. Webster, previously named Brachiaria decumbens Stapf), cocklebur (Xanthium strumarium L.), corn (Zea mays L.), large crabgrass (Digitaria sanguinalis (L.) Scop.), woolly cupgrass (Eriochloa villosa (Thunb.) Kunth), giant foxtail (Setaria faberi Herrm.), goosegrass (Eleusine indica (L.) Gaertn.), johnsongrass (Sorghum halepense (L.) Pers.), kochia (Kochia scoparia (L.) Schrad.), lambsquarters (Chenopodium album L.), morningglory (Ipomoea coccinea L.), eastern black nightshade (Solanum ptycanthum Dunal), yellow nutsedge (Cyperus esculentus L.), pigweed (Amaranthus retroflexus L.), common ragweed (Ambrosia elatior L.), soybean (Glycine max (L.) Merr.), common (oilseed) sunflower (Helianthus annuus L.) and velvetleaf (Abutilon theophrasti Medik.) were planted and treated preemergence with test chemicals formulated in a non-phytotoxic solvent mixture which included a surfactant.
At the same time, plants selected from these crop and weed species and also winter barley (Hordeum vulgare L.), blackgrass (Alopecurus myosuroides Huds.), canarygrass (Phalaris minor Retz.), chickweed (Stellaria media (L.) Vill.), downy bromegrass (Bromus tectorum L.), green foxtail (Setaria viridis (L.) Beauv.), Italian ryegrass (Lolium multiflorum Lam.), wheat (Triticum aestivum L.), wild oat (Avenafatua L.) and windgrass (Apera spica-venti (L.) Beauv.) were treated with postemergence applications of some of the test chemicals formulated in the same manner. Plants ranged in height from 2 to 18 cm (1- to 4-leaf stage) for postemergence treatments. Plant species in the flooded paddy test consisted of rice (Oryza sativa), smallflower umbrella sedge (Cyperus difformis L.), ducksalad (Heteranthera limosa (Sw.) Willd.) and barnyardgrass (Echinochloa crus-galli (L.) Beauv.) grown to the 2-leaf stage for testing. Treated plants and controls were maintained in a greenhouse for 12 to 14 days, after which time all species were compared to controls and visually evaluated. Plant response ratings, summarized in Table C, are based on a scale of 0 to 100 where 0 is no effect and 100 is complete control. A dash (-) response means no test result.

[4] = system: cocklebur; format: in vivo, Xanthium strumarium; conditions: for Plant response rating, Cocklebur: visual, 12 to 14 days
In short: as §1

[5] = system: corn; format: in vivo, Zea mays; conditions: for Plant response rating, Corn: visual, 12 to 14 days
In short: as §1

[6] = system: yellow nutsedge; format: in vivo, Cyperus esculentus; conditions: for Plant response rating, Nutsedge, Yellow: visual, 12 to 14 days
In short: as §1

[7] = system: common ragweed; format: in vivo, Ambrosia elatior; parameters: key to Plant response rating, Ragweed: 0 = no effect, 100 = complete control; conditions: for Plant response rating, Ragweed: visual, 12 to 14 days
In short: as §1

[8] = 125 g ai/ha, scale 0 (no effect) to 100 (complete control), preemergence
[9] = 250 g ai/ha, scale 0 to 100 (0 no effect, 100 complete control), preemergence
[10] = Preemergence, 500 g ai/ha, scale 0 to 100, 0 no effect, 100 complete control

SMILES: CCCn1nc(C(C)(C)C)cc1C(=O)Nc1cccc(C(=O)NCC)c1 [Compound 57]
- Plant response rating (0 = no effect, 100 = complete control), Velvetleaf ([1]; 62 g ai/ha, preemergence): 0
- Plant response rating, Velvetleaf [1, 8]: 0
- Plant response rating, Velvetleaf [1, 9]: 100
- Velvetleaf plant response rating [1, 10]: 100
- Plant response rating (0 = no effect, 100 = complete control), Crabgrass, Large ([2]; 62 g ai/ha, preemergence): 95
- Plant response rating, Crabgrass, Large [2, 8]: 100
- Plant response rating, Crabgrass, Large [2, 9]: 100
- Crabgrass, Large plant response rating [2, 10]: 100
- Plant response rating (0 = no effect, 100 = complete control), Nightshade ([3]; 62 g ai/ha, preemergence): 85
- Plant response rating, Nightshade [3, 8]: 95
- Plant response rating, Nightshade [3, 9]: 100
- Nightshade plant response rating [3, 10]: 100
- Plant response rating (0 = no effect, 100 = complete control), Cocklebur ([4]; 62 g ai/ha, preemergence): 0
- Plant response rating, Cocklebur [4, 8]: 0
- Plant response rating, Cocklebur [4, 9]: 0
- Cocklebur plant response rating [4, 10]: 0
- Plant response rating (0 = no effect, 100 = complete control), Corn ([5]; 62 g ai/ha, preemergence): 0
- Plant response rating, Corn [5, 8]: 0
- Plant response rating, Corn [5, 9]: 0
- Corn plant response rating [5, 10]: 0
- Plant response rating (0 = no effect, 100 = complete control), Nutsedge, Yellow ([6]; 62 g ai/ha, preemergence): 0
- Plant response rating, Nutsedge, Yellow [6, 8]: 0
- Plant response rating, Nutsedge, Yellow [6, 9]: 0
- Nutsedge, Yellow plant response rating [6, 10]: 20
- Plant response rating (0 = no effect, 100 = complete control), Ragweed ([7]; 62 g ai/ha, preemergence): 65
- Plant response rating, Ragweed [7, 8]: 100
- Plant response rating, Ragweed [7, 9]: 100
- Ragweed plant response rating [7, 10]: 100
